How the values were obtained:
[1] = system: metastatic castration-resistant prostate cancer; assay: Individual curative trial, PET-CT, Gallium-68 labeled compound (Case 2); format: in vivo, human; conditions: patient; radiolabeled with Gallium-68
Source text: The compound PSMA-ALB-06, radiolabeled with a positron emitting radionuclide Gallium-68 was used in an individual curative trial in a patient with metastatic castration-resistant prostate cancer as a diagnostic agents for PET-CT. […] The high contrast of the images increases over the time after injection confirming the prolonged blood clearance and high specific uptake in the tumors.

[2] = system: prostate adenocarcinoma with metastases; assay: Individual curative trial, SPECT-CT, Lutetium-177 labeled compound (Case 1); format: in vivo, human; conditions: patient, radiolabeled with Lutetium-177
Description: The compound PSMA-ALB-06, radiolabeled with therapeutic radionuclide Lutetium-177 was used in the scope of an individual curative trial in a patient with mildly differentiated prostate adenocarcinoma with extensive bilobar liver metastases, as well as disseminated osteoblastic metastases (in the pelvic region), and polytopic voluminous lymph node metastases. The evaluation of the biodistribution and in vivo behavior of the radiolabeled compound PSMA-ALB-06 was performed by means of SPECT-CT measurements.
The SPECT-CT visualization was performed at different time points up to 46 hours post injection (p.i.). […] The blood clearance is completed within first hours, whereas the unspecific uptake in healthy organs (especially liver, salivary and kidney) remains moderate over the time.

Compound: Cc1ccc(CCCC(=O)NCCCCC(NC(=O)CN2CCN(CC(=O)O)CCN(CC(=O)O)CCN(CC(=O)O)CC2)C(=O)NCC2CCC(C(=O)NC(Cc3ccc4ccccc4c3)C(=O)NCCCCC(NC(=O)NC(CCC(=O)O)C(=O)O)C(=O)O)CC2)cc1 (stereo not drawn) [PSMA-ALB-06]
- visualization of malignant tissues (PET) [1]: Malignant tissues could be visualized by means of PET with high specificity
- uptake in malignant tissues (SPECT-CT) [2]: substantial specific uptake of the radiolabeled compound in malignant tissues
- blood circulation and bioavailability ([2]; up to 46 hours p.i.): prolonged blood circulation and improved bioavailability

Source: US11629201B2, “PSMA-binding agents and uses thereof” (ITM Isotope Technologies Munich SE, priority 2017, dated 2023)
